Reference: patent US8012959B2, “Diaminopyrimidinecarboxamide derivative” (Astellas Pharma Inc., priority 2002, dated 2011)
Where a name gives a salt, the structure may show the parent alone.

Columns and labels:
STAT 6 [1] = molecular target: T1, STAT 6 (Mus musculus, UniProt P52633); assay: STAT 6-dependent reporter activity (IL-4-stimulated CI/FW4 luciferase reporter cell); assay type: cell-based, human; details: for inhibition at 0.1 µM / Inh (%) 0.1 μM: inhibition ratio at 0.1 μM compound; for inhibition at 0.1 µM / inhibition at 1 µM / Inh (%) 0.1 μM / Inh (%) 1 μM: IL-4-stimulated CI/FW4 cell, luciferase; for inhibition at 1 µM / Inh (%) 1 μM: inhibition ratio at 1 μM compound; for inhibition of STAT 6-dependent reporter activity (activity similar to the compounds of Table 26): CI/FW4 cell, 10 ng/ml human IL-4, luciferase
T1 construct: An STAT 6 reporter cell CI/FW4 was constructed by the above operation; endogenous in cells; host or cells: CI/FW4 (FW4 cell stably carrying the pGL2-CI/bs luciferase reporter)
T1 sequence (P52633 1-837): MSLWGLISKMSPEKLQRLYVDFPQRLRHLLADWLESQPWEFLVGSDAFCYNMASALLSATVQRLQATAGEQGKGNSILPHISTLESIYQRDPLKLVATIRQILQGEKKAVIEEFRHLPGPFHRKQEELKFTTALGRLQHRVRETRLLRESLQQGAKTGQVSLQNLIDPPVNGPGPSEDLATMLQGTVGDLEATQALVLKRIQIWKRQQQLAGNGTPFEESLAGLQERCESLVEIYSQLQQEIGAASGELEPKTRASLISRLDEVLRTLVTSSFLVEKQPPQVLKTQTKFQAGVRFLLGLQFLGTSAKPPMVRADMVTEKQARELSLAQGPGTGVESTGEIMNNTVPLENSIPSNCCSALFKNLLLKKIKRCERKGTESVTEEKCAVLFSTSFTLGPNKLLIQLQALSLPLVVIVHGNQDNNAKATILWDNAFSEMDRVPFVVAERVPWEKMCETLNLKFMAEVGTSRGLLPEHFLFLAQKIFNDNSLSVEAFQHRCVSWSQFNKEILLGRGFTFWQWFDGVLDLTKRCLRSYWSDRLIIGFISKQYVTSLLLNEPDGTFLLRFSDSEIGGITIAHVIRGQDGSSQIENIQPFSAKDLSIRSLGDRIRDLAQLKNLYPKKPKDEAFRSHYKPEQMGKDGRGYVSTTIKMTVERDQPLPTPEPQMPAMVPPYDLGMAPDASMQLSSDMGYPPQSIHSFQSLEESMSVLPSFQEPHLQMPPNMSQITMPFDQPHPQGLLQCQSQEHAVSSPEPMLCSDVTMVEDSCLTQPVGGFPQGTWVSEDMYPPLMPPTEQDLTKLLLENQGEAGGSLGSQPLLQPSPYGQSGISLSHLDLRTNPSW
Protocol: Measurement of STAT 6-Dependent Reporter Activity 1) Construction of STAT 6 Reactive Reporter Plasmid A STAT 6 reporter plasmid pGL2-CI was prepared by the following method. […] Also, […] sequence DNA molecules (SEQ ID NOs:3 and 4) contained in the adenovirus major late promoter were annealed and inserted into BglII and HindIII sites of the same vector. Thereafter, pGL2-CI/bs was constructed by inserting the blasticidin resistance gene of pUCSV-BD (Funakoshi) into BamHI site of the constructed pGL2-CI. 2) Construction of STAT 6 Reporter Cell Gene transfer of […] into a human IL-4 reactive cell FW4 cell (Mol. Cell. Biol., 14: 5433-5440) was carried out by the electroporation method (320 V, 960 μF/0.4 cm cuvette (Nippon Bio-Rad Laboratories)), and 6 μg/ml of blasticidin (Funakoshi) was added 40 hours thereafter to select a resistant cell. Confirmation of constant transfer of the reporter plasmid was carried out by detecting luciferase induce by IL-4 stimulation. An STAT 6 reporter cell CI/FW4 was constructed by the above operation. 3) STAT Reporter Assay Using CI/FW4 Cell Stimulation of the CI/FW4 cell (1×10^4 cells/0.1 ml) with 10 ng/ml of human IL-4 (Genzyme Techne) was carried out using a white 96 well plate (Nunc). In the case of the evaluation of compounds, compound dilutions were added to the wells before inoculating the cells into the 96 well plate. […] Thereafter, 50 μl of a luciferase substrate solution (10 mM Tris-HCl pH 7.8, 5 mM luciferin, 2 mM coenzyme A, 2 mM ATP, 0.5 mM MgCl2 and 2 mM Mg(OH)2) was added, followed by stirring for 1 minute. Then, the luciferase activity was measured using ML3000 luminometer (Dynatech Laboratories, Inc). Inhibitory activities of tested compounds were evaluated in which the luminescence intensity (relative light unit: […] The results are shown in the following Table 26.

STAT 6 [2] = molecular target: T2, STAT 6 (Homo sapiens, UniProt P42226); assay: STAT 6 tyrosine phosphorylation in IL-4-stimulated H292 cell (western blotting); assay type: cell-based; details: 1 μM compound, 10 ng/ml human IL-4, disappearance of the about 110 kDa band
T2 construct: host or cells: H292
T2 sequence (P42226 1-847): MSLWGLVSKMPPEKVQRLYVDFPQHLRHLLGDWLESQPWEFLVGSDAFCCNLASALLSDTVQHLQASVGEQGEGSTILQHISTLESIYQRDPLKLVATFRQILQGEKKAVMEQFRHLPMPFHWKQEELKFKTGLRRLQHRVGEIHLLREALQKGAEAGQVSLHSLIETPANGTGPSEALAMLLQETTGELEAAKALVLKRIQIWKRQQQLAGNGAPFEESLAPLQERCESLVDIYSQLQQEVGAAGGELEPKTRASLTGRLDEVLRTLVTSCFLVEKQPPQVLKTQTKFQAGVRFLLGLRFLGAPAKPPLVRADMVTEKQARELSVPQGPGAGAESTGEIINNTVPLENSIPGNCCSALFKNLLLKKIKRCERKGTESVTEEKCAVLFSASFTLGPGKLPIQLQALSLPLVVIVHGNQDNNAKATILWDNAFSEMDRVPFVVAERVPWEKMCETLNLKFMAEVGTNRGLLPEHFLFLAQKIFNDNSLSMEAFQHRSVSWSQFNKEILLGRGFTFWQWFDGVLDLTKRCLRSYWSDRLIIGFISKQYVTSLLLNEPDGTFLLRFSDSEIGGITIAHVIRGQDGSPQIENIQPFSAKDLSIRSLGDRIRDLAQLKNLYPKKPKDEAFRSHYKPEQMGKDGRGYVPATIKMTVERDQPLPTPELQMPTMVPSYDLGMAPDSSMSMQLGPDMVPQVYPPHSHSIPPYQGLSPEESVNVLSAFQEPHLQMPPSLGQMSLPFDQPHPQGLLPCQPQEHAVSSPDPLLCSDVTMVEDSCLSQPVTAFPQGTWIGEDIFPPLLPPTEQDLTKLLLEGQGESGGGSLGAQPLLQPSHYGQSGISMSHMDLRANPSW
Protocol: Measurement of STAT 6 Tyrosine Phosphorylation
The H292 cell (ATCC) (5×10^5 cells/0.5 ml) was inoculated into a 12 well plate (IWAKI) and cultured overnight, and then stimulation with 10 ng/ml of human IL-4 (Genzyme techne) was carried out. In the case of the evaluation of compounds, compound dilutions were added to the wells 20 minutes before the IL-4 stimulation. Also, regarding the dilution of compounds, dilution was carried out using 10% FBS-containing RPMI 1640 such that the final concentration of DMSO in which each compound was dissolved became 0.1% or less. This was washed three times with ice-cooled physiological phosphate buffer 20 minutes after the IL-4 stimulation. After the washing, 100 μl/well of a cell lysis solution (TNE buffer: 10 mM Tris-HCl pH 7.8, 1% NP-40, 0.15 M NaCl, 1 mM EDTA, 10 μg/ml aprotinin, 1 mM NaF and 1 mM Na3VO4) was added. The cell lysate was recovered, and 15 μl thereof was subjected to western blotting after SDS electrophoresis using an anti-tyrosine phosphorylated STAT 6 antibody (Cell Signaling). Whether or not the tyrosine phosphorylation band of about 110 kDa is disappeared, which is IL-4 stimulation-dependently detected, was judged. Also, uniform transference of the STAT 6 protein was confirmed using the same transfer membrane by western blotting which used an anti-STAT 6 antibody (SantaCruz).

Structure (SMILES)	inhibition at 0.1 µM (STAT 6 [1])	inhibition at 1 µM (STAT 6 [1])	Inh (%) 0.1 μM (STAT 6 [1])	Inh (%) 1 μM (STAT 6 [1])	inhibition of STAT 6-dependent reporter activity (activity similar to the compounds of Table 26) (STAT 6 [1])	inhibition of STAT 6 tyrosine phosphorylation (STAT 6 [2])
CNC(=O)c1cnc(NCCc2cc(Cl)c(O)c(Cl)c2)nc1Nc1cccc(C)c1 [Example 2, 2-{[2-(3,5-dichloro-4-hydroxyphenyl)ethyl]amino}-N-methyl-4-[(3-methylphenyl)amino]pyrimidine-5-carboxamide]	48%	96%				
NC(=O)c1cnc(Nc2ccc(N3CCOCC3)cc2)nc1NCc1cc(Cl)ccc1F [Example 39]			100%	100%		
NC(=O)c1cnc(Nc2ccc(N3CCOCC3)cc2)nc1NCc1c(F)cccc1Cl [Example 58]					good activity	
CN(C)CC(=O)N1CCN(c2ccc(Nc3ncc(C(N)=O)c(NCc4ccccc4)n3)cc2)CC1.Cl.Cl [Example 148]			94%	100%		completely inhibited
CN(CC1CN(c2ccc(Nc3ncc(C(N)=O)c(NCc4ccccc4)n3)cc2)CCO1)S(C)(=O)=O.Cl (stereo not drawn) [Example 180]			91%	100%		
CCOC(=O)CN1CCN(c2ccc(Nc3ncc(C(N)=O)c(NCc4c(F)ccc(F)c4F)n3)cc2)CC1 [Example 189]			100%	100%		completely inhibited
NC(=O)c1cnc(Nc2ccc(N3CCN(CC(=O)O)CC3)cc2)nc1NCc1c(F)ccc(F)c1F [Example 190]			100%	100%		completely inhibited
Cl.NC(=O)c1cnc(Nc2ccc(N3CCCOCC3)cc2)nc1NCc1c(F)ccc(F)c1F [Example 191]			100%	100%		completely inhibited
COC1CCCN(c2ccc(Nc3ncc(C(N)=O)c(NCc4c(F)ccc(F)c4F)n3)cc2)C1.Cl.Cl (stereo not drawn) [Example 192]			100%	100%		completely inhibited
Cl.Cl.NC(=O)CN1CCN(c2ccc(Nc3ncc(C(N)=O)c(NCc4c(F)ccc(F)c4F)n3)cc2)CC1 [Example 201]			100%	100%		completely inhibited

Now from value to compound:

inhibition at 0.1 µM (STAT 6 [1])	inhibition at 1 µM (STAT 6 [1])	Inh (%) 0.1 μM (STAT 6 [1])	Inh (%) 1 μM (STAT 6 [1])	inhibition of STAT 6-dependent reporter activity (activity similar to the compounds of Table 26) (STAT 6 [1])	inhibition of STAT 6 tyrosine phosphorylation (STAT 6 [2])	Structure (SMILES)
		25%	100%			NC(=O)c1cnc(Nc2ccc(OC3OC(CO)C(O)C(O)C3O)cc2)nc1NCc1c(F)ccc(F)c1F (stereo not drawn) [Example 233]
				good activity		NC(=O)c1cnc(Nc2ccc(N3CCOCC3)c(F)c2)nc1NCc1ccccc1 [Example 239]
		97%	100%			NC(=O)c1cnc(Nc2ccc(N3CCOCC3)c(F)c2)nc1NCc1c(F)cccc1F [Example 244]
67%	100%					Cc1cccc(Nc2nc(NCCc3ccc(O)c(Br)c3)ncc2C(N)=O)c1 [Production Example 1, 2-{[2-(3-bromo-4-hydroxyphenyl)ethyl]amino}-4-[(3-methylphenyl)amino]pyrimidine-5-carboxamide]
33%	91%					Cc1cccc(Nc2nc(Nc3ccc(CN(C)C)cc3)ncc2C(N)=O)c1 [Production Example 9, 2-({4-[(dimethylamino)methyl]phenyl}amino)-4-[(3-methylphenyl)amino]pyrimidine-5-carboxamide dihydrochloride]
91%	100%					NC(=O)c1cnc(Nc2ccc(N3CCOCC3)cc2)nc1NC1CCCCC1 [Production Example 12, 4-cyclohexylamino-2-[(4-morpholinophenyl)amino]pyrimidine-5-carboxamide]
